Experiments:
Chinese sprangletop = test: Test Example 3: herbicidal effect by foliage application, Wagner pot (Table 18, symbol D); type: in vivo, chinese sprangletop (Leptochloa chinensis); conditions: 320 g/ha
Outline: (§1)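 Plants were sown in alluvial soil held under 0.1–0.5 cm standing water and grown 14 days in a greenhouse at 25–30 °C. An emulsifiable formulation, water-diluted to the set dose, was then sprayed onto the foliage, and effects were scored three weeks later using previously defined criteria.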

wild oat [1] = test: Test Example 5: herbicidal effect by foliage application, plastic box (Table 20, symbol I); type: in vivo, wild oat (Avena fatua); conditions: foliage application, AAH 320 g/ha, three weeks after application
Outline: (§2)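 Foliar spray test: emulsion formulation diluted in water to a set application rate, sprayed onto 14-day-old plants raised in diluvial soil at 25° C to 30° C under glass. Both herbicidal effect and crop effect rated visually three weeks later.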

chickweed [2] = test: Test Example 5: herbicidal effect by foliage application, plastic box (Table 20, symbol P); type: in vivo, common chickweed (Stellaria media); conditions: foliage application, AAH 320 g/ha, three weeks after application
Outline: as §2

wild oat [3] = test: Test Example 4: herbicidal effect by soil treatment (Table 19, symbol I); type: in vivo, wild oat (Avena fatua); conditions: AAH 320 g/ha
Outline: (§3)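 Step 1: sow seeds in sterilized diluvial soil, cover ~1.5 cm. Step 2: spray diluted emulsion onto soil surface at predetermined rate. Step 3: greenhouse, 25–30° C, three weeks. Step 4: grade effect on each plant by earlier criteria.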

persian speedwell [4] = test: Test Example 4: herbicidal effect by soil treatment (Table 19, symbol R); type: in vivo, Persian speedwell (Veronica persica); conditions: AAH 320 g/ha
Outline: as §3

barnyard grass [5] = test: Test Example 4: herbicidal effect by soil treatment (Table 19, symbol H); type: in vivo, barnyard grass (Echinochloa crus-galli); conditions: AAH 320 g/ha
Outline: as §3

redroot pigweed [6] = test: Test Example 5: herbicidal effect by foliage application, plastic box (Table 20, symbol N); type: in vivo, redroot pigweed (Amaranthus retroflexus); conditions: foliage application, AAH 320 g/ha, three weeks after application
Outline: as §2

velvetleaf [7] = test: Test Example 4: herbicidal effect by soil treatment (Table 19, symbol M); type: in vivo, velvetleaf (Abutilon theophrasti); conditions: AAH 320 g/ha
Outline: as §3

barnyard grass [8] = test: Test Example 5: herbicidal effect by foliage application, plastic box (Table 20, symbol H); type: in vivo, barnyard grass (Echinochloa crus-galli); conditions: foliage application, AAH 320 g/ha, three weeks after application
Outline: as §2

green foxtail [9] = test: Test Example 5: herbicidal effect by foliage application, plastic box (Table 20, symbol G); type: in vivo, green foxtail (Setaria viridis); conditions: foliage application, AAH 320 g/ha, three weeks after application
Outline: as §2

blackgrass [10] = test: Test Example 4: herbicidal effect by soil treatment (Table 19, symbol J); type: in vivo, blackgrass (Alopecurus myosuroides); conditions: AAH 320 g/ha
Outline: as §3

rice flat sedge = test: Test Example 3: herbicidal effect by foliage application, Wagner pot (Table 18, symbol E); type: in vivo, rice flat sedge (Cyperus iria); conditions: 320 g/ha
Outline: as §1

persian speedwell [11] = test: Test Example 5: herbicidal effect by foliage application, plastic box (Table 20, symbol R); type: in vivo, Persian speedwell (Veronica persica); conditions: foliage application, AAH 320 g/ha, three weeks after application
Outline: as §2

Italian ryegrass [12] = test: Test Example 5: herbicidal effect by foliage application, plastic box (Table 20, symbol K); type: in vivo, Italian ryegrass (Lolium multiflorum); conditions: foliage application, AAH 320 g/ha, three weeks after application
Outline: as §2

chickweed [13] = test: Test Example 4: herbicidal effect by soil treatment (Table 19, symbol P); type: in vivo, common chickweed (Stellaria media); conditions: AAH 320 g/ha
Outline: as §3

Italian ryegrass [14] = test: Test Example 4: herbicidal effect by soil treatment (Table 19, symbol K); type: in vivo, Italian ryegrass (Lolium multiflorum); conditions: AAH 320 g/ha
Outline: as §3

southern crabgrass [15] = test: Test Example 5: herbicidal effect by foliage application, plastic box (Table 20, symbol F); type: in vivo, southern crabgrass (Digitaria ciliaris); conditions: foliage application, AAH 320 g/ha, three weeks after application
Outline: as §2

southern crabgrass [16] = test: Test Example 4: herbicidal effect by soil treatment (Table 19, symbol F); type: in vivo, southern crabgrass (Digitaria ciliaris); conditions: AAH 320 g/ha
Outline: as §3

green foxtail [17] = test: Test Example 4: herbicidal effect by soil treatment (Table 19, symbol G); type: in vivo, green foxtail (Setaria viridis); conditions: AAH 320 g/ha
Outline: as §3

windgrass [18] = test: Test Example 4: herbicidal effect by soil treatment (Table 19, symbol L); type: in vivo, windgrass (Apera spica-venti); conditions: AAH 320 g/ha
Outline: as §3

lambsquarters [19] = test: Test Example 4: herbicidal effect by soil treatment (Table 19, symbol O); type: in vivo, lambsquarters (Chenopodium album); conditions: AAH 320 g/ha
Outline: as §3

windgrass [20] = test: Test Example 5: herbicidal effect by foliage application, plastic box (Table 20, symbol L); type: in vivo, windgrass (Apera spica-venti); conditions: foliage application, AAH 320 g/ha, three weeks after application
Outline: as §2

barnyard grass [21] = test: Test Example 3: herbicidal effect by foliage application, Wagner pot (Table 18, symbol H); type: in vivo, barnyard grass (Echinochloa crus-galli); conditions: 320 g/ha
Outline: as §1

blackgrass [22] = test: Test Example 5: herbicidal effect by foliage application, plastic box (Table 20, symbol J); type: in vivo, blackgrass (Alopecurus myosuroides); conditions: foliage application, AAH 320 g/ha, three weeks after application
Outline: as §2

redroot pigweed [23] = test: Test Example 4: herbicidal effect by soil treatment (Table 19, symbol N); type: in vivo, redroot pigweed (Amaranthus retroflexus); conditions: AAH 320 g/ha
Outline: as §3

velvetleaf [24] = test: Test Example 5: herbicidal effect by foliage application, plastic box (Table 20, symbol M); type: in vivo, velvetleaf (Abutilon theophrasti); conditions: foliage application, AAH 320 g/ha, three weeks after application
Outline: as §2

lambsquarters [25] = test: Test Example 5: herbicidal effect by foliage application, plastic box (Table 20, symbol O); type: in vivo, lambsquarters (Chenopodium album); conditions: foliage application, AAH 320 g/ha, three weeks after application
Outline: as §2

SMILES	herbicidal effect on D (Chinese sprangletop), rating 0-5 (Chinese sprangletop)	I: wild oat, herbicidal effect (wild oat [1])	P: chickweed, herbicidal effect (chickweed [2])	I: wild oat, herbicidal effect rating (wild oat [3])	R: persian speedwell, herbicidal effect rating (persian speedwell [4])	H: barnyard grass, herbicidal effect rating (barnyard grass [5])	N: redroot pigweed, herbicidal effect (redroot pigweed [6])	M: velvetleaf, herbicidal effect rating (velvetleaf [7])	H: barnyard grass, herbicidal effect (barnyard grass [8])	G: green foxtail, herbicidal effect (green foxtail [9])	J: blackgrass, herbicidal effect rating (blackgrass [10])	herbicidal effect on E (rice flat sedge), rating 0-5 (rice flat sedge)	R: persian speedwell, herbicidal effect (persian speedwell [11])	K: Italian ryegrass, herbicidal effect (Italian ryegrass [12])	P: chickweed, herbicidal effect rating (chickweed [13])	K: Italian ryegrass, herbicidal effect rating (Italian ryegrass [14])	F: southern crabgrass, herbicidal effect (southern crabgrass [15])	F: southern crabgrass, herbicidal effect rating (southern crabgrass [16])	G: green foxtail, herbicidal effect rating (green foxtail [17])	L: windgrass, herbicidal effect rating (windgrass [18])	also measured
CCCC(=O)Oc1c(OC)nn(C)c(=O)c1-c1c(-c2ccc(F)cc2OC)sc2ccccc12 [1-177]	0 (Herbicidal rate of 5% or less (almost no effect))	3 (Herbicidal rate of 40% or more and less than 70%)	5 (Herbicidal rate of 90% or more (almost completely withered))	3 (Herbicidal rate of 40% or more and less than 70%)	4 (Herbicidal rate of 70% or more and less than 90%)	3 (Herbicidal rate of 40% or more and less than 70%)	5 (Herbicidal rate of 90% or more (almost completely withered))	0 (Herbicidal rate of 5% or less (almost no effect))	4 (Herbicidal rate of 70% or more and less than 90%)	5 (Herbicidal rate of 90% or more (almost completely withered))	0 (Herbicidal rate of 5% or less (almost no effect))	4 (Herbicidal rate of 70% or more and less than 90%)	4 (Herbicidal rate of 70% or more and less than 90%)	1 (Herbicidal rate of 5% or more and less than 20%)	5 (Herbicidal rate of 90% or more (almost completely withered))	0 (Herbicidal rate of 5% or less (almost no effect))	3 (Herbicidal rate of 40% or more and less than 70%)	3 (Herbicidal rate of 40% or more and less than 70%)	5 (Herbicidal rate of 90% or more (almost completely withered))	0 (Herbicidal rate of 5% or less (almost no effect))	O: lambsquarters, herbicidal effect rating (lambsquarters [19]): 2 (Herbicidal rate of 20% or more and less than 40%); L: windgrass, herbicidal effect (windgrass [20]): 4 (Herbicidal rate of 70% or more and less than 90%); herbicidal effect on H (barnyard grass), rating 0-5 (barnyard grass [21]): 4 (Herbicidal rate of 70% or more and less than 90%); J: blackgrass, herbicidal effect (blackgrass [22]): 4 (Herbicidal rate of 70% or more and less than 90%); N: redroot pigweed, herbicidal effect rating (redroot pigweed [23]): 5 (Herbicidal rate of 90% or more (almost completely withered)); M: velvetleaf, herbicidal effect (velvetleaf [24]): 4 (Herbicidal rate of 70% or more and less than 90%); O: lambsquarters, herbicidal effect (lambsquarters [25]): 4 (Herbicidal rate of 70% or more and less than 90%)
COc1ccc(-c2sc3ccccc3c2-c2c(O)c(OC)nn(C)c2=O)c(OC)c1 [1-180]	0 (Herbicidal rate of 5% or less (almost no effect))	3 (Herbicidal rate of 40% or more and less than 70%)	5 (Herbicidal rate of 90% or more (almost completely withered))	2 (Herbicidal rate of 20% or more and less than 40%)	4 (Herbicidal rate of 70% or more and less than 90%)	0 (Herbicidal rate of 5% or less (almost no effect))	3 (Herbicidal rate of 40% or more and less than 70%)	0 (Herbicidal rate of 5% or less (almost no effect))	1 (Herbicidal rate of 5% or more and less than 20%)	5 (Herbicidal rate of 90% or more (almost completely withered))	0 (Herbicidal rate of 5% or less (almost no effect))	4 (Herbicidal rate of 70% or more and less than 90%)	4 (Herbicidal rate of 70% or more and less than 90%)	3 (Herbicidal rate of 40% or more and less than 70%)	4 (Herbicidal rate of 70% or more and less than 90%)	0 (Herbicidal rate of 5% or less (almost no effect))	3 (Herbicidal rate of 40% or more and less than 70%)	0 (Herbicidal rate of 5% or less (almost no effect))	0 (Herbicidal rate of 5% or less (almost no effect))	0 (Herbicidal rate of 5% or less (almost no effect))	O: lambsquarters, herbicidal effect rating (lambsquarters [19]): 0 (Herbicidal rate of 5% or less (almost no effect)); L: windgrass, herbicidal effect (windgrass [20]): 3 (Herbicidal rate of 40% or more and less than 70%); herbicidal effect on H (barnyard grass), rating 0-5 (barnyard grass [21]): 1 (Herbicidal rate of 5% or more and less than 20%); J: blackgrass, herbicidal effect (blackgrass [22]): 3 (Herbicidal rate of 40% or more and less than 70%); N: redroot pigweed, herbicidal effect rating (redroot pigweed [23]): 0 (Herbicidal rate of 5% or less (almost no effect)); M: velvetleaf, herbicidal effect (velvetleaf [24]): 0 (Herbicidal rate of 5% or less (almost no effect)); O: lambsquarters, herbicidal effect (lambsquarters [25]): 2 (Herbicidal rate of 20% or more and less than 40%)

Reference: patent US20230085307A1, “PYRIDAZINONE COMPOUND AND HERBICIDE” (NISSAN CHEMICAL CORPORATION, priority 2019, published 2023)
